Data reported in ChEMBL document CHEMBL4627310, “Design, synthesis and biological evaluation of 3-nitro-1,8-naphthalimides as potential antitumor agents” (Bioorg Med Chem Lett, 2020).

Experiments:
A549 = assay: Antiproliferative activity against human A549 cells assessed as cell growth inhibition measured after 48 hrs by MTT assay; assay type: functional, cell-based; conditions: A549, 48 h
SK-OV-3 = assay: Antiproliferative activity against human SKOV3 cells assessed as cell growth inhibition measured after 48 hrs by MTT assay; assay type: functional, cell-based; conditions: SK-OV-3, 48 h
HepG2 [1] = assay: Antiproliferative activity against human HepG2 cells assessed as cell growth inhibition measured after 48 hrs by MTT assay; assay type: functional, cell-based; conditions: HepG2, 48 h
SMMC-7721 = assay: Antiproliferative activity against human SMMC7721 cells assessed as cell growth inhibition measured after 48 hrs by MTT assay; assay type: functional, cell-based; conditions: SMMC-7721, 48 h
L02 = assay: Cytotoxicity against human HL7702 cells assessed as cell growth inhibition measured after 48 hrs by MTT assay; assay type: cell-based; conditions: L02, 48 h
T-24 [2] = assay: Antiproliferative activity against human T24 cells assessed as cell growth inhibition measured after 48 hrs by MTT assay; assay type: functional, cell-based; conditions: T-24, 48 h
T-24 [3] = assay: Anticancer activity against human T24 cells xenografted in mouse assessed as tumor growth inhibition by measuring T/C ratio at 5 mg/kg measured at day 14 relative to control; assay type: functional
HepG2 [4] = assay: Anticancer activity against human HepG2 cells xenografted in mouse assessed as tumor growth inhibition by measuring T/C ratio at 5 mg/kg measured at day 14 relative to control; assay type: functional
HepG2 [5] = assay: Anticancer activity against human HepG2 cells xenografted in mouse assessed as tumor inhibition rate at 5 mg/kg measured at day 14 relative to control; assay type: functional; conditions: HepG2, 336 h
T-24 [6] = assay: Anticancer activity against human T24 cells xenografted in mouse assessed as tumor inhibition rate at 5 mg/kg measured at day 14 relative to control; assay type: functional; conditions: T-24, 336 h

Row | IC50 (A549) | IC50 (SK-OV-3) | IC50 (HepG2 [1]) | IC50 (SMMC-7721) | Structure (SMILES) | IC50 (L02) | IC50 (T-24 [2]) | T/C (T-24 [3]) | T/C (HepG2 [4]) | inhibition in vivo at 5 mg/kg (HepG2 [5]) | inhibition in vivo at 5 mg/kg (T-24 [6])
1 | 30 µM | 48.2 µM | 42.7 µM | > 100 µM | O=C1c2cccc3cc([N+](=O)[O-])cc(c23)C(=O)N1Nc1ccccn1 | 82.4 µM | 57.6 µM | – | – | – | –
2 | 32.1 µM | 61.1 µM | 38.7 µM | > 100 µM | O=C1c2cccc3cc([N+](=O)[O-])cc(c23)C(=O)N1Nc1ccccc1 | 59.1 µM | 15.1 µM | – | – | – | –
3 | 44.8 µM | 41.4 µM | 23.9 µM | 54.7 µM | O=C1c2cccc3cc([N+](=O)[O-])cc(c23)C(=O)N1c1ccc2[nH]c(=O)[nH]c2c1 | > 100 µM | 58 µM | – | – | – | –

Row | Structure (SMILES) | IC50 (A549) | IC50 (SK-OV-3) | IC50 (HepG2 [1]) | IC50 (SMMC-7721) | IC50 (L02) | IC50 (T-24 [2]) | T/C (T-24 [3]) | T/C (HepG2 [4]) | inhibition in vivo at 5 mg/kg (HepG2 [5]) | inhibition in vivo at 5 mg/kg (T-24 [6])
4 | CN(C)CCN1C(=O)c2cccc3cc([N+](=O)[O-])cc(c23)C1=O [MITONAFIDE] | 7.94 µM | 6.26 µM | 10.9 µM | 6.94 µM | 8.51 µM | 5.01 µM | 29% | 28.8% | 68.3% | 67%
